Read-outs that look alike come from different tables or passages of the source.
Columns and labels:
[1] = tested on: Aβ40 in conditioned medium of cells stably expressing Amyloid Precursor Protein (APP); assay: In vitro BACE cell-based assay (Aβ40 in conditioned medium, sandwich ELISA); details: read-out: HEK cell assay
Outline: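 The sandwich ELISA pairs pAb40 capture (3 h, 4 °C) with 6E10 detection (2 h, 4 °C) and a streptavidin-europium TRF read-out. Supernatants come from APP-expressing cells grown in 10% FBS DMEM.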

[2] = tested on: Abeta 40 in cerebrospinal fluid (CSF) and brain; assay: In vivo inhibition of beta-secretase (Abeta 40 reduction in CSF and brain); details: rat, after 4 hrs; for inhibition in vivo at 10 mg/kg: Abeta 40, 10 mg/kg (10 mpk); for inhibition in vivo at 3 mg/kg: Abeta 40, 3 mpk
Text: In Vivo Inhibition of Beta-Secretase
Several animal models, including mouse, rat, dog, and monkey, may be used to screen for inhibition of beta-secretase activity in vivo following administration of a test compound sample. Animals used in this invention can be wild type, transgenic, or gene knockout animals. […] A separate group of animals receive 2% hydroxypropyl methylcellulose, 1% Tween80 alone, containing no test compound, and serve as a vehicle-control group. At the end of the test period, animals are sacrificed and brain tissues, plasma or cerebrospinal fluid are collected. […] Homogenates are centrifuged at 355,000 g, 4° C. for 30 minutes. CSF or brain supernatants are then analyzed for the presence of A-beta peptide by specific sandwich ELISA assays based on ECL (Electrochemiluminescence) technology. For example, rat Abeta40 is measured using biotinylated-4G8 (Signet) as a capture antibody and Fab40 (an in-house antibody specific to the C-terminal of Abeta40) as a detection antibody.
Actual vehicles used: Oral: 2% HPMC, 1% Tween80, pH 2.2

[3] = molecular target: Beta Secretase enzyme (BACE) (Homo sapiens, UniProt P56817); assay: In vitro enzymatic BACE FRET (fluorescence resonance energy transfer) assay; type: biochemical; details: average IC50, enzyme assay; read-out: BACE 1 FRET assay
Sequence of Beta Secretase enzyme (BACE) (P56817 46-501, species assumed): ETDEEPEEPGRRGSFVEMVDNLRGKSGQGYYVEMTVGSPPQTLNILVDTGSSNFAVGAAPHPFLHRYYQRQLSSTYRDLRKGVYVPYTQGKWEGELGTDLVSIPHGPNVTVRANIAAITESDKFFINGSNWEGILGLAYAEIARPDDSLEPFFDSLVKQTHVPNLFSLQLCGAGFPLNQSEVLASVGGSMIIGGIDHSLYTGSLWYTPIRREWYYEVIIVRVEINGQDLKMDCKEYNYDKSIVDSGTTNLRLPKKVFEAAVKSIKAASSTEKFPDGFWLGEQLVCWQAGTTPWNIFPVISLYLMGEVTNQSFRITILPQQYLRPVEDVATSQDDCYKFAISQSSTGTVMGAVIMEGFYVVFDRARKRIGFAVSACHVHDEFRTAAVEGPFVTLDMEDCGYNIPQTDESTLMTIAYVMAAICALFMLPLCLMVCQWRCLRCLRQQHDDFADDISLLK
Outline: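 Fluorescence read after Tris quench to neutral pH. Reaction: 50 nM fluorophore/quencher peptide substrate, 1 h, in 0.05 M acetate pH 4.2, 10% DMSO final, 100 uM genapol.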

[4] = Homo sapiens, HEK293, average IC50, HEK cells
[5] = CSF, read-out: CSF A-beta reduction % at 10 mg/kg
[6] = brain, read-out: Brain A-beta reduction % at 10 mg/kg
[7] = Homo sapiens, HEK293, average IC50
[8] = CSF, read-out: CSF A-beta reduction % at 3 mpk
[9] = brain, read-out: Brain A-beta reduction % at 3 mpk

Row | IC50 [1, 4] | IC50 [3] | IC50 [1, 7] | IC50 ([1]; average IC50, HEK cells) | SMILES | inhibition in vivo at 10 mg/kg [2, 5] | inhibition in vivo at 10 mg/kg [2, 6] | inhibition in vivo at 3 mg/kg [2, 8] | inhibition in vivo at 3 mg/kg [2, 9]
1 | 11.6 nM | 5 nM | – | – | Cc1ccc(-c2cc(F)c3c(c2)[C@]2(COC(N)=N2)c2cc(OCC(C)(C)C#N)ccc2O3)cn1 [Example 443, (S)-3-(2-amino-4′-fluoro-2′-(6-methylpyridin-3-yl)-5H-spiro[oxazole-4,9′-xanthene]-7′-yloxy)-2,2-dimethylpropanenitrile] | 35% | 7% | – | –
2 | 10 nM | 0.5 nM | – | – | NC1=N[C@@]2(CO1)c1cc(-c3cccnc3F)c(F)cc1Oc1c(F)cc(N3CCOCC3)cc12 (single isomer, unassigned) [Example 869] | 61% | 44% | – | –
3 | 5 nM | 0.4 nM | – | – | NC1=N[C@@]2(CO1)c1cc(-c3cccnc3)ccc1Oc1c2cc(N2CCC(F)(F)C2)nc1F [Example 916, (S)-3-(3,3-difluoropyrrolidin-1-yl)-1-fluoro-7-(pyridin-3-yl)-5′-H-spiro[chromeno[2,3-c]pyridine-5,4′-oxazol]-2′-amine] | 61% | 44% | – | –
4 | – | 1 nM | 22 nM | – | CC(F)(F)COc1cc(F)c2c(c1)[C@]1(CSC(N)=N1)c1cc(-c3cccnc3F)ccc1O2 [Example 724, (4S)-2′-(2,2-difluoropropoxy)-4′-fluoro-7′-(2-fluoro-3-pyridinyl)spiro[1,3-thiazole-4,9′-xanthen]-2-amine] | 42% | 27% | – | –
5 | 9 nM | 0.4 nM | – | – | NC1=N[C@@]2(CO1)c1cc(-c3cncc(F)c3)ccc1Oc1c2cc(N2CCC(F)(F)C2)nc1F [Example 922, (S)-3-(3,3-difluoropyrrolidin-1-yl)-1-fluoro-7-(5-fluoropyridin-3-yl)-5′-H-spiro[chromeno[2,3-c]pyridine-5,4′-oxazol]-2′-amine] | – | – | 69% | 57%
6 | – | 0.4 nM | 4 nM | – | NC1=N[C@@]2(CO1)c1cc(-c3cccnc3)ccc1Oc1c2cc(C2=CCCOC2)nc1F [Example 745, (5S)-3-(5,6-dihydro-2-H-pyran-3-yl)-1-fluoro-7-(3-pyridinyl)spiro[chromeno[2,3-c]pyridine-5-4′-[1,3]oxazol]-2′-amine] | 78% | 69% | – | –
7 | – | 0.4 nM | 7 nM | – | NC1=N[C@@]2(CS1)c1cc(-c3cccnc3F)ccc1Oc1c2cc(C2CCOCC2)nc1F [Example 1029, (S)-1-fluoro-7-(2-fluoropyridin-3-yl)-3-(tetrahydro-2H-pyran-4-yl)-5′H-spiro[chromeno[2,3-c]pyridine-5,4′-thiazol]-2′-amine] | 83% | 73% | – | –
8 | 14.3 nM | 0.8 nM | – | – | CC1(C#Cc2cnc3c(c2)[C@]2(COC(N)=N2)c2cc(-c4cccc(Cl)c4F)ccc2O3)COC1 [Example 463, (S)-7-(3-chloro-2-fluorophenyl)-3-((3-methyloxetan-3-yl)ethynyl)-5′H-spiro[chromeno[2,3-b]pyridine-5,4′-oxazol]-2′-amine] | 30% | 9% | – | –
9 | – | 0.9 nM | 6 nM | – | Cc1ccnc(F)c1-c1ccc2c(c1)[C@@]1(COC(N)=N1)c1cc(C3=CCOCC3)ncc1O2 [Example 236, (S)-3-(3,6-dihydro-2H-pyran-4-yl)-7-(2-fluoro-4-methylpyridin-3-yl)-5′H-spiro[chromeno[2,3-c]pyridine-5,4′-oxazol]-2′-amine] | 58% | 34% | – | –
10 | – | 3.3 nM | 12.6 nM | – | Cn1cc(-c2cc(F)c3c(c2)[C@]2(COC(N)=N2)c2cc(-c4ccc(F)nc4)ccc2O3)cn1 [Example 262, (S)-4′-fluoro-7′-(6-fluoropyridin-3-yl)-2′-(1-methyl-1H-pyrazol-4-yl)-5H-spiro[oxazole-4,9′-xanthen]-2-amine] | 36% | 11% | – | –
11 | – | 0.2 nM | 12 nM | – | NC1=N[C@@]2(CS1)c1cc(-c3cccnc3F)ccc1Oc1c(F)cc(C3=CCCOC3)cc12 [Example 802, (S)-2′-(5,6-dihydro-2H-pyran-3-yl)-4′-fluoro-7′-(2-fluoropyridin-3-yl)-5H-spiro[thiazole-4,9′-xanthen]-2-amine] | 69% | 57% | – | –
12 | 5.2 nM | 1.1 nM | – | – | NC1=N[C@@]2(CO1)c1cc(-c3cccnc3)ccc1Oc1cnc(N3CCC(F)(F)C3)cc12 [Example 138, (S)-3-(3,3-difluoropyrrolidin-1-yl)-7-(pyridin-3-yl)-5′H-spiro[chromeno[2,3-c]pyridine-5,4′-oxazol]-2′-amine] | 67% | 48% | – | –
13 | – | 1.2 nM | 18 nM | – | NC1=N[C@@]2(CS1)c1cc(-c3cccnc3F)ccc1Oc1c(F)cc(-c3cccnc3)cc12 [Example 1083, (S)-4′-fluoro-7′-(2-fluoropyridin-3-yl)-2′-(pyridin-3-yl)-5H-spiro[thiazole-4,9′-xanthen]-2-amine] | 66% | 53% | – | –
14 | 14.4 nM | 3.7 nM | – | – | CC1(C)C=C(c2ccc3c(c2)[C@]2(COC(N)=N2)c2cc(-c4cncnc4)c(F)cc2O3)CCO1 [Example 508, (R)-7′-(6,6-dimethyl-3,6-dihydro-2H-pyran-4-yl)-3′-fluoro-2′-(pyrimidin-5-yl)-5H-spiro[oxazole-4,9′-xanthen]-2-amine] | 49% | 25% | – | –
15 | – | 1.1 nM | 5 nM | – | CC1(C#Cc2cnc3c(c2)[C@]2(COC(N)=N2)c2cc(-c4cccc(C#N)c4)ccc2O3)COC1 [Example 127, (S)-3-(2′-amino-3-((3-methyloxetan-3-yl)ethynyl)-5′H-spiro[chromeno[2,3-b]pyridine-5,4′-oxazole]-7-yl)benzonitrile] | 61% | 45% | – | –
16 | – | 0.3 nM | 4 nM | – | NC1=N[C@@]2(CS1)c1cc(-c3cccnc3F)ccc1Oc1c2cc(C2=CCOCC2)nc1F [Example 1001, (S)-3-(3,6-dihydro-2H-pyran-4-yl)-1-fluoro-7-(2-fluoropyridin-3-yl)-5′H-spiro[chromeno[2,3-c]pyridine-5,4′-thiazol]-2′-amine] | – | – | 73% | 62%
17 | – | 3.9 nM | 27.2 nM | – | Cc1cnc(-c2cc(F)c3c(c2)[C@]2(COC(N)=N2)c2cc(-c4cccnc4F)ccc2O3)nc1 [Example 226, (S)-4′-fluoro-7′-(2-fluoropyridin-3-yl)-2′-(5-methylpyrimidin-2-yl)-5H-spiro[oxazole-4,9′-xanthen]-2-amine] | 31% | 19% | – | –
18 | 11 nM | 0.8 nM | – | – | CC(C)(F)COc1cc(F)c2c(c1)[C@]1(COC(N)=N1)c1cc(-c3cncnc3)c(F)cc1O2 [Example 668, (4S)-3′,5′-difluoro-7′-(2-fluoro-2-methylpropoxy)-2′-(5-pyrimidinyl)spiro[1,3-oxazole-4,9′-xanthen]-2-amine] | – | – | 55% | 46%
19 | – | 0.5 nM | – | 11 nM | CC1(C#Cc2cc3c(nc2F)Oc2ccc(-c4cccnc4F)cc2[C@@]32COC(N)=N2)COC1 [Example 901, (5S)-2-fluoro-7-(2-fluoro-3-pyridinyl)-3-((3-methyl-3-oxetanyl)ethynyl)spiro[chromeno[2,3-b]pyridine-5,4′-[1,3]oxazol]-2′-amine] | 56% | 44% | – | –
20 | 10 nM | 0.7 nM | – | – | CC(C)(C#N)COc1cc(F)c2c(c1)[C@]1(COC(N)=N1)c1cc(-c3cccnc3)c(F)cc1O2 [Example 860, (S)-3-(2-amino-3′,5′-difluoro-2′-(pyridin-3-yl)-5H-spiro[oxazole-4,9′-xanthene]-7′-yloxy)-2,2-dimethylpropanenitrile] | 0% | 2% | – | –
21 | – | 0.4 nM | 12 nM | – | NC1=N[C@@]2(CS1)c1cc(-c3cccnc3F)ccc1Oc1c(F)cc(-c3ncccn3)cc12 [Example 1079, (S)-4′-fluoro-7′-(2-fluoropyridin-3-yl)-2′-(pyrimidin-2-yl)-5H-spiro[thiazole-4,9′-xanthen]-2-amine] | 67% | 54% | – | –
